“Also recorded” adds a separate entry of the source.
Tests used:
[1] = system: FGF-2; assay: Isothermal titration calorimetry of glycosaminoglycan binding to FGF-2; details: for n, average number of FGF-2 molecules occupying a single glycosaminoglycan chain (stoichiometry) / Kd: 50 mM sodium phosphate pH 7.4, 100 mM NaCl, 25° C; for FGF-2 binding (in words): isothermal titration calorimetry
Method: Interaction of glycosaminoglycans and their derivatives with FGF-2. Isothermal titration calorimetry was performed in 50 mM sodium phosphate buffer, pH 7.4, containing 100 mM sodium chloride at 25° C. as previously described (15).
Determination of the FGF-2 binding affinity of glycosaminoglycans and their derivatives. Isothermal titration calorimetry was performed with heparin oligosaccharides, herapin, acharan sulfate and N-sulfoacharan sulfate. The heat of interaction (ΔH) is directly measured in this experiment. From this heat of interaction the Kd, and n (stoichiometry) of interaction can be deduced. The minimum FGF-2 binding site is a tetra- or hexasaccharide. […] The n value is consistent with the molecular weight of each ligand (Table 2).

[2] = system: FGF-2 mitogenic activity in F32 cells; assay: FGF-2 mitogenicity assay in F32 cells, presence of 10 ng/ml heparin ([3H]-thymidine incorporation; inhibition of heparin-mediated activity); type: cell-based; details: for FGF-2 mitogenicity in the presence of heparin (in words): 10 ng/ml heparin, 150 pM FGF-2, 40 h
Method: (§1) Assay of FGF-2 mitogenic activity, FGF-2 mitogenicity assays were performed in F32 cells that express FGF-receptor 1 (FGF-R1)(16) but no detectable levels of heparan sulfate proteoglycans (17). […] Tested glycosaminoglycans were added in concentrations ranging from 1-5000 ng/ml. Proliferation was measured after 40 h incubation in 200 μl medium (RPM1 1640, 10% heat-inactivated newborn calf serum) in the presence of a 1 μCi/well pulse of [^3 H]-thymidine during the final 6 h of the incubation. Radioactivity incorporated into DNA was quantified by scintillation counting, MTT, 3-[4,5-dimethylthiazol-2-yl]-2,5-diphenyl tetrazolium bromide (Thiazole blue), used to determine cell viability, was from Sigma Chemical (St. Louis, Mo.).
(§2) Influence of glycosaminoglycans and their derivatives on FGF-2 mitogenic activity. The direct influence of acharan sulfate and its derivative on FGF-2 mitogenic activity was measured in the absence of added heparin. […] The effect of acharan sulfate on cell viability was assessed by measuring the formation of a chromogen from MTT, a tetrazolium dye that is converted solely by living cells (18). […] Thus, the inhibition of mitogenicity is not due to toxicity leading to reduced cell number.

[3] = system: F32 cells; assay: MTT cell viability assay; type: cell-based; details: 40 h incubation, same concentrations as in the mitogenicity assays
Method: as §1, §2

[4] = system: FGF-2 mitogenic activity in F32 cells; assay: FGF-2 mitogenicity assay in F32 cells, absence of added heparin ([3H]-thymidine incorporation; stimulation of FGF-2 activity); type: cell-based; details: for [3H]-thymidine incorporation, controls alone: F32 cells, heparin (alone) and FGF-2 (alone) controls
Method: as §1, §2

[5] = system: FGF-2; details: cited from earlier work

| Substance | n, average number of FGF-2 molecules occupying a single glycosaminoglycan chain (stoichiometry) [1] | FGF-2 mitogenicity in the presence of heparin (in words) [2] | Kd [1] [µM] | FGF-2 binding (in words) [1] | [3H]-thymidine incorporation, controls alone [4] | further results |
| --- | --- | --- | --- | --- | --- | --- |
| ΔUAp2S(1→[4)GlcNp2S6S(1→4)IdoAp2S(→]m=1-5) [dodecasaccharide, reference compound] | 1.8 |  |  |  |  |  |
| →4)GlcNpAc(1→4)IdoAp2S(1→ [Acharan sulfate] | 13.4 | markedly decreased the mitogenic activity in a concentration dependent manner; also recorded: inhibited FGF-2 mitogenicity in the presence of heparin | 4.5 | binds very poorly; also recorded: very weak |  | IC50 of inhibition of FGF-2 mitogenicity ([2]; in the presence of 10 ng/ml heparin): ~ 400 ng/ml; cell viability (number of living cells, MTT) [3]: no reduction in the number of living cells; Kd ([1]; listed as acharan sulfate): > 4 µM |
| →4)GlcNp2S(1→4)IdoAp2S(1→ [N-sulfoacharan sulfate] | 4.4 | no discernible effect on FGF-2 mitogenicity induced by heparin | 0.09 | bind FGF-2 most tightly; also recorded: tightly bound multiple FGF-2 molecules |  | FGF-2 mitogenicity in the presence of heparin (in words) ([2]; listed as N-sulfoacharan): failed to further stimulate FGF-2 mitogenicity; FGF-2 mitogenic activity (in words) ([4]; absence of added heparin): about the same activity as the syndecan-1 ectodomain; also recorded: minimal mitogenic activity compared with that of heparin; activity relative to heparin, fold less active ([4]; absence of added heparin, on a weight basis): about 150 fold |
| Low molecular weight heparin [reference compound] | 3.6 |  | 0.036 |  |  |  |
| FGF-2: growth factor, control alone in F32 mitogenicity assay |  |  |  |  | ~ 750 cpm |  |
| Heparin [reference compound] |  |  | 0.036 | bind FGF-2 most tightly | ~ 750 cpm | mitogenic activity (literature, in words) [5]: known to enhance the activity of FGF-2 |

— patent US6028061A, “Angiogenesis inhibitors and use thereof” (Children's Medical Center Corp, priority 1998, dated 2000)
